Source: patent US10030004B2, “Compounds and methods of use” (Medivation Technologies LLC, priority 2014, dated 2018)
Where two headings read alike, the source gives them in different places.

What was measured:
ALK3 (BMPR1A) = ALK3 (BMPR1A) (Homo sapiens (Human), UniProt P36894); assay: In vitro kinase assay, ALK3; assay type: biochemical; conditions: read-out: Inhibition of ALK3 IC50
ALK2 (ACVR1) = ALK2 (ACVR1) (Homo sapiens (Human), UniProt Q04771); assay: In vitro kinase assay, ALK2; assay type: biochemical; conditions: read-out: Inhibition of ALK2 IC50
ALK1 (ACVRL1) = ALK1 (ACVRL1) (Homo sapiens (Human), UniProt P37023); assay: In vitro kinase assay, ALK1; assay type: biochemical; conditions: 10 μM ATP; read-out: Inhibition of ALK1 IC50
[1] = Pharmacokinetics and bioavailability in male mice after a single dose; assay type: in vivo; conditions: for AUC(0-t) / Cmax / clearance / half-life / Tmax / bioavailability: mouse, plasma; for half-life: read-out: Terminal t1/2 (converted)
ALK6 (BMPR1B) = ALK6 (BMPR1B) (Homo sapiens (Human), UniProt O00238); assay: In vitro kinase assay, ALK6; assay type: biochemical; conditions: 10 μM ATP; read-out: Inhibition of ALK6 IC50
[2] = Plasma and brain concentrations at 0.5 and 1 h in mice; assay type: in vivo; conditions: for concentration at 0.5 h / concentration at 1 h: male, mouse
[3] = brain, IV (2 mg/kg), 0.5 h, read-out: Brain concentration
[4] = brain, IV (2 mg/kg), 1 h, read-out: Brain concentration
[5] = brain, PO (10 mg/kg), 0.5 h, read-out: Brain concentration
[6] = brain, PO (10 mg/kg), 1 h, read-out: Brain concentration
[7] = plasma, IV (2 mg/kg), 0.5 h, read-out: Plasma concentration
[8] = plasma, IV (2 mg/kg), 1 h, read-out: Plasma concentration
[9] = plasma, PO (10 mg/kg), 0.5 h, read-out: Plasma concentration
[10] = plasma, PO (10 mg/kg), 1 h, read-out: Plasma concentration
[11] = brain, 2 mg/kg, IV, 0.5 h, read-out: Brain Concentration
[12] = brain, 2 mg/kg, IV, 1 h, read-out: Brain Concentration
[13] = brain, 10 mg/kg, PO, 0.5 h, read-out: Brain Concentration
[14] = brain, 10 mg/kg, PO, 1 h, read-out: Brain Concentration
[15] = plasma, 2 mg/kg, IV, 0.5 h, read-out: Plasma Concentration
[16] = plasma, 2 mg/kg, IV, 1 h, read-out: Plasma Concentration
[17] = plasma, 10 mg/kg, PO, 0.5 h, read-out: Plasma Concentration
[18] = plasma, 10 mg/kg, PO, 1 h, read-out: Plasma Concentration

Chain of ALK6 (BMPR1B) (O00238 14-502): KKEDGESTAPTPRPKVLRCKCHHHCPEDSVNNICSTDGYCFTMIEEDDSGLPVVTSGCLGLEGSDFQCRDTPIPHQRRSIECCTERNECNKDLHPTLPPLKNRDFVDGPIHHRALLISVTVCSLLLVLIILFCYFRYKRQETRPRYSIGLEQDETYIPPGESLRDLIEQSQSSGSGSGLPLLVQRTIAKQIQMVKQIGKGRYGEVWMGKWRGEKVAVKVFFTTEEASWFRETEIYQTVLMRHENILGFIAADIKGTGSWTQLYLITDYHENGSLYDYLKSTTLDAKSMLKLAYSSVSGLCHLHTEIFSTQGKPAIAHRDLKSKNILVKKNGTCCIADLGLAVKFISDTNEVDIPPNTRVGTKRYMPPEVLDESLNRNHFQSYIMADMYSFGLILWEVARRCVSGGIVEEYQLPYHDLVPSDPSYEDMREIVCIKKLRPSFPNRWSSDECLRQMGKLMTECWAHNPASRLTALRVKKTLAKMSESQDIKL
Chain of ALK3 (BMPR1A) (P36894 24-532): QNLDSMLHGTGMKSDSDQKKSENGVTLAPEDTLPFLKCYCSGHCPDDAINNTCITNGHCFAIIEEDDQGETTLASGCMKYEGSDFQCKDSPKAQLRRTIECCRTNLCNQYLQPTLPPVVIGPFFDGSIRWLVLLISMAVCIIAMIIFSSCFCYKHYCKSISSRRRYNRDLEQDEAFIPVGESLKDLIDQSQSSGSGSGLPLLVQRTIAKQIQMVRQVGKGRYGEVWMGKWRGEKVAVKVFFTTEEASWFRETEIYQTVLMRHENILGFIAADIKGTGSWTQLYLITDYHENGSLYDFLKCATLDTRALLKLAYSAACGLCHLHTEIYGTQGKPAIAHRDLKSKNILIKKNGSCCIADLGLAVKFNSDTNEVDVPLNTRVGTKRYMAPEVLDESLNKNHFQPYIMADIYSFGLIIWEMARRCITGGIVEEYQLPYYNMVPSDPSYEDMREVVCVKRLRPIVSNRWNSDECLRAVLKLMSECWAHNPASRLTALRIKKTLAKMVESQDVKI
Chain of ALK2 (ACVR1) (Q04771 21-509): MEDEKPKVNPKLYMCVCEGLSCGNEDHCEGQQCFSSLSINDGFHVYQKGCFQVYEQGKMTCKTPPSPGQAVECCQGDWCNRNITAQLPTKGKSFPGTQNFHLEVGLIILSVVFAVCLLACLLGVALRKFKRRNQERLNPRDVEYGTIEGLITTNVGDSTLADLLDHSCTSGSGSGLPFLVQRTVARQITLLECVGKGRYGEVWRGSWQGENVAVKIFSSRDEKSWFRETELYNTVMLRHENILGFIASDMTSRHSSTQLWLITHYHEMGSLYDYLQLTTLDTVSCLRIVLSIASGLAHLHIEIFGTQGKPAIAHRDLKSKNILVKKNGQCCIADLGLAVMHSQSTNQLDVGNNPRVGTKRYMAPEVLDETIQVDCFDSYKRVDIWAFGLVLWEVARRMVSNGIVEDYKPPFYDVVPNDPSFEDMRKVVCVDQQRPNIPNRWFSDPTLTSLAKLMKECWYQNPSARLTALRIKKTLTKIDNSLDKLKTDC
Chain of ALK1 (ACVRL1) (P37023 22-503): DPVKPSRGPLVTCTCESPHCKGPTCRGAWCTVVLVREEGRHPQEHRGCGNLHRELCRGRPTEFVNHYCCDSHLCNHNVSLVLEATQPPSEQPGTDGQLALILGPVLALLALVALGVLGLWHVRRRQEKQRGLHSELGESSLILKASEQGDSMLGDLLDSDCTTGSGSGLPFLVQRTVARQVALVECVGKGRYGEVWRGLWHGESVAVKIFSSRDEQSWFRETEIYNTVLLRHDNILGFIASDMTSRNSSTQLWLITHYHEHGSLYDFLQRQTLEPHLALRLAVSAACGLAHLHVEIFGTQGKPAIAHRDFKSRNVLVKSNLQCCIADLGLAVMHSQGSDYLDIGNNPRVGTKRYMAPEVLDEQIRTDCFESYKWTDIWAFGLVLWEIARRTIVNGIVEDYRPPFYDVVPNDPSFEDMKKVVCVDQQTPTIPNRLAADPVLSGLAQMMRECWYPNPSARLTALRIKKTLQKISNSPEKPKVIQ

Row | AUC(0-t) ([1]; intravenous, 2 mg/kg) [µM·h] | Cmax ([1]; intravenous, 2 mg/kg) [nM] | clearance ([1]; intravenous, 2 mg/kg) [mL/min/kg] | half-life ([1]; intravenous, 2 mg/kg) [min] | AUC(0-t) ([1]; oral, 10 mg/kg) [µM·h] | Cmax ([1]; oral, 10 mg/kg) [nM] | Tmax ([1]; oral, 10 mg/kg) [min] | bioavailability ([1]; oral, 10 mg/kg) [%] | V ([1]; intravenous, 2 mg/kg) [L/kg] | Compound | IC50 (ALK3 (BMPR1A); 10 μM ATP) [µM] | IC50 (ALK2 (ACVR1); 10 μM ATP) [µM] | half-life ([1]; oral, 10 mg/kg) [min] | IC50 (ALK6 (BMPR1B)) [µM] | also measured
1 | – | – | – | – | – | – | – | – | – | C=C(C)c1cnc(-c2cc(Cl)ccc2F)cc1Nc1ccncc1C(=O)N[C@@H](C)CO [7a, (S)-4-(2-(5-chloro-2-fluorophenyl)-5-(prop-1-en-2-yl)pyridin-4-ylamino)-N-(1-hydroxypropan-2-yl)nicotinamide] | > 100 | 10.9 | – | – | –
2 | – | – | – | – | – | – | – | – | – | C=C(C)c1cnc(-c2cc(Cl)ccc2F)cc1Nc1ccncc1C(=O)N1CCCC1 [compound 34, 2-(5-chloro-2-fluorophenyl)-5-(prop-1-en-2-yl)-N-[3-(pyrrolidine-1-carbonyl)pyridin-4-yl]pyridin-4-amine] | > 10 | > 10 | – | – | IC50 (ALK1 (ACVRL1)): > 10 µM
3 | – | – | – | – | – | – | – | – | – | Fc1ccc(Cl)cc1-c1cc(Nc2ccnc3[nH]ccc23)c(C2CC2)cn1 [compound 32, 2-(5-chloro-2-fluorophenyl)-5-cyclopropyl-N-{1H-pyrrolo[2,3-b]pyridin-4-yl}pyridin-4-amine] | 3.33 | – | – | – | IC50 (ALK2 (ACVR1)): 5.84 µM
4 | 3.15 | 3610 | 24.7 | 61.2 | 9.79 | 3480 | 15 | 62.2 | – | CCc1cnc(-c2cc(Cl)ccc2F)cc1Nc1ccncc1C(=O)NC[C@H](C)O (single isomer, unassigned) [11a] | – | – | 99 | – | –
5 | – | – | – | – | – | – | – | – | – | CC(C)c1cnc(-c2cc(Cl)ccc2F)cc1Nc1ncnc2[nH]ccc12 [compound 35, 2-(5-chloro-2-fluorophenyl)-5-(propan-2-yl)-N-{7H-pyrrolo[2,3-d]pyrimidin-4-yl}pyridin-4-amine] | – | – | – | – | IC50 (ALK2 (ACVR1)): 5.45 µM
6 | – | – | – | – | – | – | – | – | – | CC(C)c1cnc(-c2ncccc2F)cc1Nc1ccnc2[nH]ccc12 [compound 29, 2-(3-fluoropyridin-2-yl)-5-(propan-2-yl)-N-{1H-pyrrolo[2,3-b]pyridin-4-yl}pyridin-4-amine] | – | – | – | 15.3 | IC50 (ALK2 (ACVR1)): 60.6 µM
7 | 1.19 | 544 | – | – | 5.25 | 1570 | 30 | 88 | 4.14 | CC(C)c1cnc(-c2cc(Cl)ccc2F)cc1Nc1ccncc1C(=O)NC[C@H](C)O (single isomer, unassigned) [2a] | – | – | – | – | concentration at 0.5 h [2, 3]: 73.2 ng/mL; concentration at 1 h [2, 4]: 82.4 ng/mL; concentration at 0.5 h [2, 5]: 202 ng/mL; concentration at 1 h [2, 6]: 114 ng/mL; concentration at 0.5 h [2, 7]: 310 ng/mL; concentration at 1 h [2, 8]: 366 ng/mL; concentration at 0.5 h [2, 9]: 1570 ng/mL; concentration at 1 h [2, 10]: 905 ng/mL
8 | 3.69 | 2150 | 19.8 | 97.8 | 14.5 | 4280 | 30 | 78.3 | 2.80 | CC(C)c1cnc(-c2cc(Cl)ccc2F)cc1Nc1ncncc1C(=O)NC[C@H](C)O (single isomer, unassigned) [12a] | – | – | 103 | – | –
9 | – | – | – | – | – | – | – | – | – | CC(C)c1cnc(-c2cc(Cl)ccc2F)cc1Nc1ncnc2[nH]ncc12 [compound 36, 2-(5-chloro-2-fluorophenyl)-5-(propan-2-yl)-N-{1H-pyrazolo[3,4-d]pyrimidin-4-yl}pyridin-4-amine] | – | – | – | – | IC50 (ALK3 (BMPR1A)): > 10 µM; IC50 (ALK2 (ACVR1)): 8.93 µM
10 | 1.57 | 3010 | – | – | 2.54 | 1880 | 30 | 32.5 | 3.86 | CC(=O)NCCNC(=O)c1cnccc1Nc1cc(-c2cc(Cl)ccc2F)ncc1C(C)C [compound 14, N-(2-acetamidoethyl)-4-[[2-(5-chloro-2-fluoro-phenyl)-5-isopropyl-4-pyridyl]amino]pyridine-3-carboxamide] | – | – | – | – | –
11 | – | – | – | – | – | – | – | – | – | C=C(C)c1cnc(-c2cc(Cl)ccc2F)cc1Nc1ncncc1C(=O)NC[C@H](C)O [4a, (S)-4-(2-(5-chloro-2-fluorophenyl)-5-(prop-1-en-2-yl)pyridin-4-ylamino)-N-(2-hydroxypropyl)pyrimidine-5-carboxamide] | – | 10.6 | – | – | –
12 | 3.77 | 2460 | – | 91.8 | 16.2 | 7070 | 30 | 86.6 | 2.43 | CC(C)c1cnc(-c2cc(Cl)ccc2F)cc1Nc1ccncc1C(=O)NC(CO)CO [compound 22, 4-[[2-(5-chloro-2-fluoro-phenyl)-5-isopropyl-4-pyridyl]amino]-N-[2-hydroxy-1-(hydroxymethyl)ethyl]pyridine-3-carboxamide] | – | – | – | – | concentration at 0.5 h [2, 11]: 7 nM; concentration at 1 h [2, 12]: 5 nM; concentration at 0.5 h [2, 13]: 20 nM; concentration at 1 h [2, 14]: 15 nM; concentration at 0.5 h [2, 15]: 1690 nM; concentration at 1 h [2, 16]: 967 nM; concentration at 0.5 h [2, 17]: 7070 nM; concentration at 1 h [2, 18]: 3530 nM
13 | 4.41 | 3400 | 17 | 39.3 | 7.5 | 3420 | 30 | 34.1 | 0.967 | C[C@H](O)CNC(=O)c1cnccc1Nc1cc(-c2cc(Cl)ccc2F)ncc1N(C)C (single isomer, unassigned) [16a] | – | – | 142 | > 1000 | concentration at 0.5 h [2, 11]: 48 nM; concentration at 1 h [2, 12]: 19 nM; concentration at 0.5 h [2, 13]: 48 nM; concentration at 1 h [2, 14]: 25 nM; concentration at 0.5 h [2, 15]: 3040 nM; concentration at 1 h [2, 16]: 1230 nM; concentration at 0.5 h [2, 17]: 3420 nM; concentration at 1 h [2, 18]: 1690 nM
14 | 1.11 | 2560 | 66 | – | 0.907 | 612 | 15 | 16.4 | – | C=C(C)c1c(Nc2ccncc2C(=O)NC[C@H](C)O)cc(-c2cc(Cl)ccc2F)nc1N (single isomer, unassigned) [23a] | > 100 | > 100 | – | > 100 | –
15 | – | – | – | – | – | – | – | – | – | CC(C)c1cnc(-c2ncccc2F)cc1Nc1ncnc2[nH]ccc12 [compound 30, 2-(3-fluoropyridin-2-yl)-5-(propan-2-yl)-N-{7H-pyrrolo[2,3-d]pyrimidin-4-yl}pyridin-4-amine] | > 10 | 73 | – | 13.5 | –
16 | 1.19 | 520 | – | – | 0.927 | 198 | 60 | 15.5 | 21.1 | CC(C)c1cnc(-c2cc(Cl)ccc2F)cc1Nc1ccncc1C(=O)NCCN [compound 19, N-(2-aminoethyl)-4-[[2-(5-chloro-2-fluoro-phenyl)-5-isopropyl-4-pyridyl]amino]pyridine-3-carboxamide] | – | – | – | – | Brain Concentration ([2]; PO, 0.5 h): BLQ; Brain Concentration ([2]; PO, 1 h): BLQ; concentration at 0.5 h [2, 11]: 4 nM; concentration at 1 h [2, 12]: 3 nM; concentration at 0.5 h [2, 15]: 280 nM; concentration at 1 h [2, 16]: 183 nM; concentration at 0.5 h [2, 17]: 164 nM; concentration at 1 h [2, 18]: 198 nM

Row | Compound | AUC(0-t) ([1]; intravenous, 2 mg/kg) [µM·h] | Cmax ([1]; intravenous, 2 mg/kg) [nM] | clearance ([1]; intravenous, 2 mg/kg) [mL/min/kg] | half-life ([1]; intravenous, 2 mg/kg) [min] | AUC(0-t) ([1]; oral, 10 mg/kg) [µM·h] | Cmax ([1]; oral, 10 mg/kg) [nM] | Tmax ([1]; oral, 10 mg/kg) [min] | bioavailability ([1]; oral, 10 mg/kg) [%] | V ([1]; intravenous, 2 mg/kg) [L/kg] | IC50 (ALK3 (BMPR1A); 10 μM ATP) [µM] | IC50 (ALK2 (ACVR1); 10 μM ATP) [µM] | half-life ([1]; oral, 10 mg/kg) [min] | IC50 (ALK6 (BMPR1B)) [µM] | also measured
17 | COc1cnc(-c2cc(Cl)ccc2F)cc1Nc1ccncc1C(=O)NC[C@H](C)O (single isomer, unassigned) [13a] | 1.56 | 1420 | 20.7 | 125 | 5.64 | 1600 | 15 | 72.3 | 3.72 | – | – | 171 | – | IC50 (ALK3 (BMPR1A)): > 100 µM
18 | C=C(C)c1cnc(-c2cc(Cl)ccc2F)cc1Nc1ccncc1C(=O)NCCO [compound 26, 4-[[2-(5-chloro-2-fluoro-phenyl)-5-isopropenyl-4-pyridyl]amino]-N-(2-hydroxyethyl)pyridine-3-carboxamide] | 1.76 | 3000 | 44.3 | 97.2 | 2.36 | 1290 | 30 | 26.9 | 6.21 | > 100 | > 100 | 99.6 | > 100 | –
19 | C=C(C)c1cnc(-c2cc(Cl)ccc2F)cc1Nc1ccncc1C(=O)NC[C@H](C)O (single isomer, unassigned) [3a] | 2.56 | 602 | 12.8 | 232 | 10.5 | 1650 | 15 | 82 | 1.29 | – | – | 231 | > 100 | concentration at 0.5 h [2, 3]: 173 ng/mL; concentration at 1 h [2, 4]: 168 ng/mL; concentration at 0.5 h [2, 5]: 305 ng/mL; concentration at 1 h [2, 6]: 406 ng/mL; concentration at 0.5 h [2, 7]: 432 ng/mL; concentration at 1 h [2, 8]: 365 ng/mL; concentration at 0.5 h [2, 9]: 1280 ng/mL; concentration at 1 h [2, 10]: 1250 ng/mL
